Test results from patent US12661354B2, “DRG-MDM2-4 for use as a novel mouse double minute 2 (MDM2) inhibitor” (BAHCESEHIR UNIVERSITESI, priority 2020, dated 2026).
Like-named read-outs stand apart in the source and are kept apart here.

Assays:
MDM2 protein = MDM2 protein (Homo sapiens, UniProt Q00987); conditions: MDM2 protein versus natural p53 peptide; cited from earlier work
[1] = tested on: HCT 116 colon cancer and MDA-MB231 breast cancer cell lines; test: MTT cell proliferation assay; format: cell-based; conditions: for cytotoxicity at 100 µM: read-out: cell viability decreased
Procedure: (§1) HCT 116 colon cancer and MDA-MB231 breast cancer cell lines are used in cell culture experiments.
(§2) Cells were treated with high-glucose DMEM medium (Biosera) supplemented with 10% FBS (Gibco) and 1× penicillin/streptomycin (Multicell). The assay was designed to contain 10,000 cells for each well of 24-well cell culture plates before being treated with inhibitors.
(§3) Compound of formula I was dissolved with DMSO as 20 mM stock. 24 hours later, the solution was diluted in DMEM with 10% FBS and final concentration of vehicle DMSO was 0.5% at maximum. Therefore, the vehicle group included 0.5% DMSO concentration in experiments. Intensive cultivation of cells causes a decrease in proliferation capacity.
For proliferation inhibition analysis, cells were seeded in 24 well plates at 1×10^4 cells/well cells overnight without drug treatment. During the cell proliferation experiments, we performed five days of treatment in each cell line and repeated the experiments three times to check each experiment. No significant difference in cell viability was observed after the third day. Therefore, cells with different drug concentrations were treated for two days. After 48 hours, MTT was applied to the cells and incubated at 37° C. for 4 hours, formazan was solubilized with DMSO (Sigma-Aldrich, St. Louis, USA) and absorbance was measured at 570 nm.
Molecule concentration was 100 μM, the lower concentrations were not shown. Vehicle represents the groups treated with only %0,5 DMSO and Untreated represents no molecule treated group. Molecule responses were evaluated by cell viability which is obtained by spectrophotometric analysis of cells upon MTT treatment at 12 h, 24 h, 48 h and 72 h. […] Statistical significance in graphs was determined by comparing each treatment group with DMSO control using ANOVA testing and significance is considered as p<0.001 (FIG. 2).

MDA-MB231 cell lines = test: MTT cell viability assay (IC50); format: cell-based; conditions: Homo sapiens, MDA-MB-231; MDA-MB231, single dose of treatment, 10^−9 to 10^−4 M, 570 nm absorbance
Procedure: as §1, §2, §3
The MTT cell viability assay was used to detect values of half-maximal inhibitory concentration (IC50). Different concentrations of compound of formula I ranging between 10^−9 to 10^−4 M were tested on MDA-MB231 cell lines with single dose of treatment. 570 nm absorbance values were recorded and IC50 values were calculated by dose response-inhibition curves and nonlinear regression analysis on Graphpad Prism 8 software. IC50 value of compound of formula I was determined to be 24 μm (FIG. 1).

HCT-116 cells = test: Microscopic evaluation of HCT-116 cells; format: cell-based
Text: Cells were photographed and observed under microscope for three days.
As a result, cell viability decreased by 40% at the end of the first day and reached 60% at the end of the third day. Any cell proliferation change and apoptotic cell morphology were not observed in the untreated and vehicle groups. Moreover, differences in cell morphology were also observed.

Sequence of MDM2 protein (Q00987 whole entry, species assumed): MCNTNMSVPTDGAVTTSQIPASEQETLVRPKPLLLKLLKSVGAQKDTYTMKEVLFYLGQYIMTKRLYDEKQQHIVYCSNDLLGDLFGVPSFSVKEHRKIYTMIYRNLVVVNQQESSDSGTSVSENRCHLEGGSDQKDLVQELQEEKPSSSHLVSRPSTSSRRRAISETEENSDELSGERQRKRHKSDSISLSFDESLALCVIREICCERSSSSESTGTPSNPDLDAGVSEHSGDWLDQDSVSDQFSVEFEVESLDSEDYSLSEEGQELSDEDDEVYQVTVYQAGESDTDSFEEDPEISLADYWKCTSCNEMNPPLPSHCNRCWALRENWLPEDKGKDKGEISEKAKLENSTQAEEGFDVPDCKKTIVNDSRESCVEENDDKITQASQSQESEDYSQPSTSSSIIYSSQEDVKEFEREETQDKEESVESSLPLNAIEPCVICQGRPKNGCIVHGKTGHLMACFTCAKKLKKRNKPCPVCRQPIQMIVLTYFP

Molecule	binding affinity relative to natural p53 peptide (MDM2 protein)	cell viability compared to vehicle and untreated groups ([1]; 100 μM, 12 h, 24 h, 48 h and 72 h, ANOVA, p<0.001)	cytotoxicity at 100 µM ([1]; end of the first day)	cytotoxicity at 100 µM ([1]; end of the third day)	IC50 (MDA-MB231 cell lines)	morphology of apoptotic cells, onset (HCT-116 cells; 100 μM concentration)	apoptotic activity, onset (HCT-116 cells; HCT-116, microscopy)	proliferation and cell structures under microscope (HCT-116 cells; HCT-116, observed for three days, versus vehicle and untreated)
MI-319	500 fold	–	–	–	–	–	–	–
Cc1cc(=O)c(C(=O)NCCc2c[nH]c3ccccc23)nn1-c1cccc(C(F)(F)F)c1 [compound of formula I]	–	statistically significant difference	40%	60%	24 µM	cells having the morphology of apoptotic cells were observed starting from the 3rd hour	clear apoptotic activity from the twelfth hour	reduced proliferation and showed apoptotic cell structures
